# Test results from patent EP2208498B1, “PHARMACEUTICAL COMPOSITION COMBINING VARIOUS VENOTONIC AND VASOPROTECTIVE AGENTS FOR THE TREATMENT OF CHRONIC VENOUS INSUFFICIENCY” (priority 2007, dated 2009).
# Key:
# [1] = cited from earlier work
# haemorrhoidal crises = conditions: 25 patients 1 500 mg per day calcium dobesilate; 26 patients 3000 mg per day flavonoid fraction of diosmine; cited from earlier work
# [2] = system: patients with chronic venous insufficiency
# Procedure: A randomized, comparative clinical study was carried out wherein 150 patients with chronic venous insufficiency were included.
# All patients were firstly treated with conventional therapy, combining compression with pharmacological treatment.
# A full clinical history with physical examination was prepared for the patients, being assessed with Echo Doppler and CEAP classification, see Table 1.
# [3] = Final symptomatology data after two months of treatment, n=50 per group, initial 100%
compound,measurement,setting,value
"O=S(=O)(O)c1cc(O)ccc1O [calcium dobesilate, Calcium dobesilate]",plasma peak,[1]; after oral administration,8 µg/mL
same,time of plasma peak,[1]; after oral administration,around 6 hours
same,Plasma half-life,[1]; in vivo,about 5 hours
same,administered dose removed in feces,[1]; remaining dose,50%
same,administered dose removed in urine,[1]; within the first 24 hours,50%
same,improvement in haemorrhoidal crises (in words),haemorrhoidal crises,significant improvement
same,Itch,"[2]; Final symptomatology data after two months of treatment, n=50 per group, initial 80-88%",0
same,Cramps,[2]; [3],0
same,Heaviness,[2]; [3],0
same,Limb pain,[2]; [3],0
same,Doppler,"[2]; Final symptomatology data after two months of treatment, n=50 per group, initial >9",<9
same,reported side effects such as: head ache and tiredness sensation,"[2]; human, in vivo",14 patients
